Measured values as given in patent publication US8921270B2, “Method for pre-emergent weed control using triazine-based herbicide” (Amvac Chemical Corporation, priority 2011, dated 2014).
Read-outs that look alike come from different tables or passages of the source.

What was measured:
corn [1] = settings: in vivo
Method: (§1) Several scientific and replicated field research trials were conducted in multiple locations to evaluate weed control and crop tolerance of herbicide compositions containing about 80% by weight of ametryn active ingredient in the form of a water dispersible granule (WDG). The herbicide compositions were applied to the soil surface with or without weeds present at specific intervals i) before planting (preplant), ii) prior to planting and incorporated into the soil (preplant incorporated), and iii) after planting of the corn, but prior to emergence (preemergence).
(§2) Small plot research trials were conducted using a statistical design known as Randomized Complete Block Design (RCBD), which assumes that a population of experimental units can be divided into a number of relatively homogeneous subpopulations or blocks. […] In the analysis, the variation among blocks can be partitioned out of the experimental error (MSE), thereby reducing this quantity and increasing the power of the test. […]
(§3) Efficacy on weeds and crop tolerance evaluations were conducted at specified intervals for each trial. […] Crop tolerance was evaluated at intervals of 7 to 14, 21 to 28, and 42 to 56 days after corn emergence in these trials. […] In an additional trial, efficacy of ametryn at rates of 1.2, 1.6 and 2.4 lb ai/a applied PRE was evaluated on grass and broadleaf weeds at the same intervals as the earlier trials. […]

corn [2] = assay: Crop tolerance (corn) field trial, Laurel, Md., light soil (Example 2); type: in vivo
Method: as §1, §2, §3

Green Foxtail = assay: Weed control field trial, York, Nebr., medium textured soil (Example 11); type: in vivo; settings: PRE; 4 weeks after application
Method: as §1
(§4) Small plot research trials were conducted using a statistical design known as Randomized Complete Block Design (RCBD), which assumes that a population of experimental units can be divided into a number of relatively homogeneous subpopulations or blocks. The treatments are then randomly assigned to experimental units such that each treatment occurs equally often (usually once) in each block—i.e., each block contains all treatments. Blocks usually represent levels of naturally occurring differences or sources of variation that are unrelated to the treatments. In the analysis, the variation among blocks can be partitioned out of the experimental error (MSE), thereby reducing this quantity and increasing the power of the test. See, Clewer, A. G., and D. H. Scarisbrick. 2001. Practical statistics and experimental design for plant and crop science. John Wiley & Sons Ltd., New York. crop science. […]
(§5) Efficacy on weeds and crop tolerance evaluations were conducted at specified intervals for each trial. […] Crop tolerance was evaluated at intervals of 7 to 14, 21 to 28, and 42 to 56 days after corn emergence in these trials. […] The efficacy of ametryn at a rate of 0.8, 1.2, 1.6 and 2.4 lbs ai/a applied 7 to 14 days preplant was evaluated on grass and broadleaf weeds at intervals of 7 to 14, 21 to 28, and 42 to 56 days after corn emergence. […] In an additional trial, efficacy of ametryn at rates of 1.2, 1.6 and 2.4 lb ai/a applied PRE was evaluated on grass and broadleaf weeds at the same intervals as the earlier trials. […]

Waterhemp [3] = assay: as above; type: in vivo; settings: PRE; 4 weeks after application
Method: as §1, §4, §5

Velvetleaf [4] = assay: as above; type: in vivo; settings: PRE; 4 weeks after application
Method: as §1, §4, §5

corn [5] = settings: in vivo; remark: listed apart in the source
Method: as §1, §2, §3

Redroot Pigweed [6] = assay: Weed control field trial, Wyoming, Ill., medium textured soil (Example 7); type: in vivo; settings: PRE; 8 weeks observation after application
Method: as §1
(§6) Small plot research trials were conducted using a statistical design known as Randomized Complete Block Design (RCBD), which assumes that a population of experimental units can be divided into a number of relatively homogeneous subpopulations or blocks. The treatments are then randomly assigned to experimental units such that each treatment occurs equally often (usually once) in each block—i.e., each block contains all treatments. Blocks usually represent levels of naturally occurring differences or sources of variation that are unrelated to the treatments. In the analysis, the variation among blocks can be partitioned out of the experimental error (MSE), thereby reducing this quantity and increasing the power of the test. See, Clewer, A. G., and D. H. Scarisbrick. 2001. Practical statistics and experimental design for plant and crop science. John Wiley & Sons Ltd., New York. crop science. Treatment size was typically 4 rows of corn on 30-inch row spacing×30 feet long replicated 3 to 4 times. Preplant, preplant incorporated (PPI), or preemergence (PRE) treatments were uniformly applied with a hand-held backpack sprayer pressurized with compressed air or carbon dioxide (CO2) as the propellant to simulate commercial scale application. Treatments were applied using flat fan nozzle or spray nozzles at from 30 to 35 pounds per square inch (psi) delivering from 15 to 20 gallons of finished spray solution per acre.
as §5

Giant Foxtail [7] = assay: as above; type: in vivo; settings: PRE; 8 weeks observation after application
Method: as §1, §6, §5

Velvetleaf [8] = assay: as above; type: in vivo; settings: PRE; 8 weeks observation after application
Method: as §1, §6, §5

Lambsquarters [9] = assay: as above; type: in vivo; settings: PRE; 8 weeks observation after application
Method: as §1, §6, §5

Giant Ragweed [10] = assay: Weed control field trial, Richland, Iowa, fine textured soil (Example 6); type: in vivo; settings: PRE; 4 weeks observation after application
Method: as §1, §6
(§7) Efficacy on weeds and crop tolerance evaluations were conducted at specified intervals for each trial. Ametryn herbicide (80% WDG) was applied to the soil at the times relative to planting as indicated at rates of 0.8, 1.2, 1.6, and 2.4 pounds of active ingredient per acre (lb ai/a) at various days preplant up to right before planting (0 day preplant), or immediately following planting (PRE), but before crop emergence. Crop tolerance was evaluated at intervals of 7 to 14, 21 to 28, and 42 to 56 days after corn emergence in these trials. Crop injury, if observed, was reported on a 0 to 100% visual rating scale and the type of injury (e.g., stunting) was noted. The efficacy of ametryn at a rate of 0.8, 1.2, 1.6 and 2.4 lbs ai/a applied 7 to 14 days preplant was evaluated on grass and broadleaf weeds at intervals of 7 to 14, 21 to 28, and 42 to 56 days after corn emergence. Efficacy trials were also conducted in no tillage and reduced tillage cropping systems, allowing for evaluations of existing weeds at application (i.e., burndown) and residual control of weeds which germinate following application. In an additional trial, efficacy of ametryn at rates of 1.2, 1.6 and 2.4 lb ai/a applied PRE was evaluated on grass and broadleaf weeds at the same intervals as the earlier trials. Efficacy in the later trials was conducted in both conventional and reduced tillage systems, which allowed for evaluations of residual weed control following application. A local commercial corn hybrid was planted in each trial location.
(§8) A weed control field trial was conducted in Richland, Iowa on a fine textured soil (e.g., silty clay loam). […]

Giant Foxtail [11] = assay: as above; type: in vivo; settings: PRE; 4 weeks observation after application
Method: as §1, §6, §7, §8

Cocklebur [12] = assay: as above; type: in vivo; settings: PRE; 4 weeks observation after application
Method: as §1, §6, §7, §8

Waterhemp [13] = assay: as above; type: in vivo; settings: PRE; 4 weeks observation after application
Method: as §1, §6, §7, §8

Velvetleaf [14] = assay: as above; type: in vivo; settings: PRE; 4 weeks observation after application
Method: as §1, §6, §7, §8

Morningglory [15] = assay: as above; type: in vivo; settings: PRE; 4 weeks observation after application
Method: as §1, §6, §7, §8

corn [16] = settings: in vivo; remark: listed apart in the source
Method: as §1, §2, §3

Giant Ragweed [17] = assay: Weed control field trial, Laurel, Md., light textured soil (Example 5); type: in vivo; settings: 1.2, 1.6, 2.4 lb ai/a PRE; 27 and 56 days after corn emergence
Method: as §1, §6, §7
(§9) A weed control field trial was conducted in Laurel, Md. on a light textured soil. Ametryn herbicide (80% WDG) was applied preemergence to bare soil in the field to Giant Foxtail, Velvetleaf, Waterhemp, Giant Ragweed, Morningglory, and Cocklebur at rates of 1.2, 1.6 and 2.4 pounds of active ingredient per acre (lb ai/a) immediately following planting (PRE) and prior to corn emergence. The application volume was between 15 and 25 gallons per acre. […]

Giant Foxtail [18] = assay: as above; type: in vivo; settings: 1.2, 1.6, 2.4 lb ai/a PRE; 27 and 56 days after corn emergence
Method: as §1, §6, §7, §9

Cocklebur [19] = assay: as above; type: in vivo; settings: 1.2, 1.6, 2.4 lb ai/a PRE; 27 and 56 days after corn emergence
Method: as §1, §6, §7, §9

Waterhemp [20] = assay: as above; type: in vivo; settings: 1.2, 1.6, 2.4 lb ai/a PRE; 27 and 56 days after corn emergence
Method: as §1, §6, §7, §9

Velvetleaf [21] = assay: as above; type: in vivo; settings: 1.2, 1.6, 2.4 lb ai/a PRE; 27 and 56 days after corn emergence
Method: as §1, §6, §7, §9

Morningglory [22] = assay: as above; type: in vivo; settings: 1.2, 1.6, 2.4 lb ai/a PRE; 27 and 56 days after corn emergence
Method: as §1, §6, §7, §9

corn [23] = settings: in vivo; remark: listed apart in the source
Method: as §1, §2, §3

Giant Foxtail [24] = assay: Weed control field trial, Geneva, Minn., medium textured soil (Example 10); type: in vivo; settings: PRE; 32 days after application
Method: as §1, §6, §5

Waterhemp [25] = assay: as above; type: in vivo; settings: PRE; 60 days after application
Method: as §1, §6, §5

Velvetleaf [26] = assay: as above; type: in vivo; settings: PRE; 32 days after application
Method: as §1, §6, §5

Lambsquarters [27] = assay: as above; type: in vivo; settings: PRE; 32 days after application
Method: as §1, §6, §5

Redroot Pigweed [28] = assay: Weed control field trial, Fishers, Ind., fine textured soil (Example 8); type: in vivo; settings: PRE, rate of 1.6 lb ai/a
Method: as §1, §6, §5

Giant Foxtail [29] = assay: as above; type: in vivo; settings: PRE, rate of 1.6 lb ai/a
Method: as §1, §6, §5

Velvetleaf [30] = assay: as above; type: in vivo; settings: PRE, rate of 1.6 lb ai/a
Method: as §1, §6, §5

Lambsquarters [31] = assay: as above; type: in vivo; settings: PRE, rate of 1.6 lb ai/a
Method: as §1, §6, §5

corn [32] = settings: in vivo; remark: listed apart in the source
Method: Several scientific and replicated field research trials were conducted in multiple locations to evaluate weed control and crop tolerance of herbicide compositions containing about 80% by weight of […] active ingredient in the form of a water dispersible granule (WDG). The herbicide compositions were applied to the soil surface with or without weeds present at specific intervals i) before planting ([…]) prior to planting and incorporated into the soil ([…] incorporated), and iii) after planting of the corn, but prior to emergence (preemergence). Small plot research trials were conducted using a statistical design known as Randomized Complete Block Design (RCBD), which assumes that a population of experimental units can be divided into a number of relatively homogeneous subpopulations or blocks. […] In the analysis, the variation among blocks can be partitioned out of the experimental error (MSE), thereby reducing this quantity and increasing the power of the test. […] Crop tolerance was evaluated at intervals of 7 to 14, 21 to 28, and 42 to 56 days after corn emergence in these trials. […] Crop tolerance was evaluated at intervals of 23, 33, 41 and 56 days after corn emergence in these trials. […] Corn injury (height of corn, number of plants emerged) was measured as visual injury (% injury) at three different times during the season. […]

corn [33] = assay: Corn injury in weed control field trial, Laurel, Md., light textured soil (Example 9); type: in vivo
Method: as §1, §6, §5

corn [34] = settings: in vivo; remark: listed apart in the source
Method: as §1, §2, §3

Goosegrass = assay: Weed control field trial, Laurel, Md., light textured soil (Example 4); type: in vivo; settings: 0.8, 1.6, 2.4 lb ai/a; 14 days preplant, 2 days preplant, PRE; 21 and 35 days after corn emergence
Method: as §1, §2, §3

Lambsquaters = assay: as above; type: in vivo; settings: 0.8, 1.6, 2.4 lb ai/a; 14 days preplant, 2 days preplant, PRE; 21 and 35 days after corn emergence
Method: as §1, §2, §3

corn [35] = settings: in vivo; remark: listed apart in the source
Method: as §1, §2, §3

CCNc1nc(NC(C)C)nc(SC)n1 [ametryn, 2-ethylamino-4-isopropylamino-6-methylthio-s-triazine]
Percent corn injury (corn safety) (corn [1]): excellent corn safety
Corn yield (corn [2]; even though visual injury was measured at certain times): no reduction in yield
Corn injury (corn [2]; in vivo): non-significant or no injury
Weed control (Green Foxtail): good control
Weed control (Waterhemp [3]): good control
Weed control (Velvetleaf [4]): moderate control
Percent corn injury (safety to corn) (corn [5]): acceptable safety
Weed control (Redroot Pigweed [6]): good control
Weed control (Giant Foxtail [7]): good control
Weed control (Velvetleaf [8]): good control
Weed control (Lambsquarters [9]): good control
Weed control (Giant Ragweed [10]): moderate to good control
Weed control (Giant Foxtail [11]): moderate to good control
Weed control (Cocklebur [12]): moderate to good control
Weed control (Waterhemp [13]): excellent control
Weed control (Velvetleaf [14]): moderate to good control
Weed control (Morningglory [15]): moderate to good control
Percent corn injury (safety to corn) (corn [16]): acceptable safety
Percent weed control (Giant Ragweed [17]): significant improvement of weed control over the untreated treatment
Percent weed control (Giant Foxtail [18]): significant improvement of weed control over the untreated treatment
Percent weed control (Cocklebur [19]): significant improvement of weed control over the untreated treatment
Percent weed control (Waterhemp [20]): significant improvement of weed control over the untreated treatment
Percent weed control (Velvetleaf [21]): significant improvement of weed control over the untreated treatment
Percent weed control (Morningglory [22]): significant improvement of weed control over the untreated treatment
Percent corn injury (corn safety) (corn [23]): excellent corn safety
Weed control (Giant Foxtail [24]): good control
Weed control (Waterhemp [25]): moderate control
Weed control (Velvetleaf [26]): good control
Weed control (Lambsquarters [27]): good control
Weed control (Redroot Pigweed [28]): good weed control
Weed control (Giant Foxtail [29]): moderate weed control
Weed control (Velvetleaf [30]): moderate weed control
Weed control (Lambsquarters [31]): good weed control
Corn injury (visual injury) (corn [32]): No injury
Corn yield (corn [33]; even when minor injury was observed): no negative effect on yield
Corn injury (corn [33]; in vivo): Minor injury
Percent corn injury (safety to corn versus commercial standard) (corn [33]; in vivo): as safe to corn as a commercial standard of isoxaflutole with cyprosulfamide
Safety to corn (corn [33]; in vivo): excellent safety
Corn injury (corn [34]): No injury
Percent weed control (Goosegrass): significant improvement of weed control over the untreated treatment
Percent weed control (Lambsquaters): significant improvement of weed control over the untreated treatment
Percent corn injury (safety to corn) (corn [35]): excellent safety
